Non-standard residues stand in square brackets, D forms with d. Residues, ends and D or L forms follow the SMILES beside them. ξ: configuration not given here. *: point of attachment. X1 = NC(=O)[C@H]1OC(N*)[C@H](O)[C@@H](O)[C@@H]1O; ξAoc(2) = CCCCCCC(N)C(=O)O

Data set [1] in a line: Apparent permeability across human Caco-2 cells. The format is ADME, cell-based.
Data set [2] can be described thus: Stability in Caco-2 cells after 2 hrs. The format is ADME, cell-based. The settings on record: human, read-out: Stability.
A short description of data set [3]: Stability in Caco-2 cells assessed as half life. The following applies: human. The format is ADME, cell-based, Colon.
Data set [4] in a line: Stability in Caco-2 cells after 20 mins. The format is ADME, cell-based. The following applies: human, read-out: Stability.

Regarding `CCCCCCC(N)C(=O)N[C@@H](CCC(N)=O)C(=O)N[C@@H](Cc1cnc[nH]1)C(=O)N1CCC[C@H]1C(=O)NC1O[C@H](C(N)=O)[C@@H](O)[C@H](O)[C@H]1O` (stereo not given in full) (H-[ξAoc(2)]QHP-X1), the Papp (as a rule, a coefficient for how fast a substance crosses the barrier) in data set [1] was determined as 16.3 ×10⁻⁶ cm/s. The remaining at 2 h in data set [2] came to 20%. The half-life (commonly how long it takes for the measured level to halve) in data set [3] amounted to 20 min.

Take `OC[C@@H](O)[C@@H](O)[C@H](O)[C@H](O)CO` [MANNITOL]: the Papp in data set [1] is 0.0825 ×10⁻⁶ cm/s.

Take `NC(=O)[C@H]1OC(NC(=O)[C@@H]2CCCN2C(=O)[C@H](Cc2cnc[nH]2)NC(=O)[C@@H]2CCC(=O)N2)[C@H](O)[C@@H](O)[C@@H]1O` (stereo not given in full): the Papp in data set [1] came out at 5.1 ×10⁻⁶ cm/s. For the same molecule, the remaining at 2 h in data set [2] came to 20%. In data set [3], the half-life came to 20 min.

Take `NC(=O)[C@@H]1CCCN1C(=O)[C@H](Cc1cnc[nH]1)NC(=O)[C@@H]1CCC(=O)N1` [PROTIRELIN]: the Papp in data set [1] was 0.147 ×10⁻⁶ cm/s. For the same molecule, the remaining at 20 min in data set [4] is less than 5%. In data set [3], the half-life was found to be 3 min.

Values taken from ChEMBL document CHEMBL1149580, “Caco-2 cell permeability and stability of two d-glucopyranuronamide conjugates of thyrotropin-releasing hormone” (Bioorg Med Chem, 2007).
